Active and inactive are the calls of the source.
Legend:
Protein skinhead-1 = target: T1, Protein skinhead-1 (Caenorhabditis elegans, UniProt P34707); format: functional
T1 sequence (P34707 whole entry): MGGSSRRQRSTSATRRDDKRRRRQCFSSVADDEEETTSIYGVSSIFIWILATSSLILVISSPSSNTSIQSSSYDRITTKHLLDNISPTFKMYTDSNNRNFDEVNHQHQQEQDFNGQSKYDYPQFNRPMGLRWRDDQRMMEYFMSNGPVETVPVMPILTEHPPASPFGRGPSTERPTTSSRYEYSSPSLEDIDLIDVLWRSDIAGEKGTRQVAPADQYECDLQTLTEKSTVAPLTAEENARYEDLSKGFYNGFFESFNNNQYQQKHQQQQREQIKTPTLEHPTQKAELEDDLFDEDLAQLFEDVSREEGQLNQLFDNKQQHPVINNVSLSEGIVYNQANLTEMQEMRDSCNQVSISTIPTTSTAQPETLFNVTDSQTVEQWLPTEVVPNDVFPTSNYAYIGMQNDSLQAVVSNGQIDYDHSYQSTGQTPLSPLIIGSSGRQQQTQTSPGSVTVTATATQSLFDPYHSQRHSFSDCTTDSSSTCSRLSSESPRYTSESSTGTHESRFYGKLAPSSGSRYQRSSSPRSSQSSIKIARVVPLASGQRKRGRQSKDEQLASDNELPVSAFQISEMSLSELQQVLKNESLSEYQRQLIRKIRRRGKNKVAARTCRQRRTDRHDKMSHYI

Fatty acid synthase [1] = target: T2, Fatty acid synthase (Homo sapiens, UniProt P49327); assay: inhibition of human FAS-TE enzyme activity – biochemical, endpoint fluorescence intensity, uHTS hits, dose response (AID 624327); format: functional;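 further: fluorescence from hydrolysis of an O-methyl fluorescein acyl ester substrate by the enzyme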
Fatty acid synthase [2] = target: T2, Fatty acid synthase; assay: inhibition of human FAS-TE enzyme activity – biochemical, kinetic fluorescence intensity, dose response (AID 624326); format: functional;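 further: rate of fluorescence rise from hydrolysis of a fluorogenic O-methyl fluorescein ester substrate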
Nonstructural protein 1 = Nonstructural protein 1 (Influenza A virus, UniProt Q194T2); format: functional, Influenza A virus (A/California/07/2009(H1N1))
[3] = luciferase reporter signal suppression in cells – H4 neuroglioma cells, luminescence, dose response (AID 1990); format: functional, cell-based
[4] = Luminescence Cell-Based Dose Response HTS to Identify Inhibitors of 5'UTR Stem-Loop Driven Prion Protein mRNA Translation in H4 Neuroglioblastoma Cells. [Related pubchem assays: 1827 (Project Summary), 1813 (Primary HTS)]; format: functional
[5] = alpha-synuclein stem-loop luciferase translation blockers – H4 neuroglioma cells, luminescence, confirmation (AID 1988); format: functional, cell-based
Vero = assay: cells; format: functional; conditions: Chlorocebus sabaeus
[6] = microbe, parasite or virus in culture; format: functional; conditions: Mycobacterium tuberculosis
[7] = reduction of Shn3 3'UTR-driven luciferase in osteoblasts – cell-based, Clone20 osteoblasts, firefly luciferase, cherry-picked, dose response (AID 624132); format: functional;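 further: firefly luciferase luminescence from reporter carrying the Shn3 3'UTR in osteoblasts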
[8] = loss of viability in HepG2 cells – cell-based, CellTiter-Glo, cherry-picked, cytotoxicity control for Shn3 inhibitor project, dose response (AID 624134); format: functional
[9] = non-specific 3'UTR reporter inhibition in Clone20-Shn3RL – cell-based, Renilla luciferase, cherry-picked, counter-screen for Shn3 inhibitor project, dose response (AID 624133); format: functional
[10] = viability of uninfected HEp-2 cells – cell-based, HTS, cytotoxicity control for RSV inhibitor project, dose response (AID 2410); format: functional; conditions: human respiratory syncytial virus
Cytochrome P450 2C19 = Cytochrome P450 2C19 (Homo sapiens, UniProt P33261); assay: Cytochrome panel assay with activity outcomes. Panel member name: p450-cyp2c19 Compounds with AC50 equal or less than 10 uM are considered active; format: functional; conditions: read-out: AC50
[11] = blockers of HIV-1 envelope-mediated cell-cell fusion – cherry-pick, dose response (AID 652057); format: functional, cell-based
[12] = blockers of HIV-1 ZM109 envelope-driven cell-cell fusion – HeLa effector, CEM target cells, luciferase, cherry-pick, dose response (AID 652058); format: functional, cell-based;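 further: luciferase signal from HIV-1 Env mediated cell-cell fusion of effector and target cells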
[13] = HIV-1 AD8 envelope cell-cell fusion blockers – cherry-pick, dose response (AID 652062); format: functional, cell-based;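 further: luciferase signal from cell-cell fusion driven by HIV-1 clade B AD8 Env; potency is for inhibitors of fusion seen as a drop in luminescence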
[14] = viability of PTEN-deleted HCT116 cells – cell-based, HCT116 PTEN knockout, dose response (AID 1047); format: functional;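 further: HCT116 colon tumor cells with PTEN knocked out; cells exposed to compound for 60 hours before readout; potency for loss of cell viability measured by luminescence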
[15] = viability of HCT116 lacking mutant beta-catenin – cell-based, human colon tumor, dose response (AID 1045); format: functional;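 further: HCT116 colon tumor cells with beta catenin knocked out; cells exposed to compound for 60 hours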
[16] = target: T3, Replicative DNA helicase DnaB (Mycobacterium tuberculosis, UniProt P9WMR3); assay: DnaB intein splicing inhibitors, dose response, biochemical, cell-free fluorescence (AID 449749); format: functional
T3 sequence (P9WMR3 whole entry): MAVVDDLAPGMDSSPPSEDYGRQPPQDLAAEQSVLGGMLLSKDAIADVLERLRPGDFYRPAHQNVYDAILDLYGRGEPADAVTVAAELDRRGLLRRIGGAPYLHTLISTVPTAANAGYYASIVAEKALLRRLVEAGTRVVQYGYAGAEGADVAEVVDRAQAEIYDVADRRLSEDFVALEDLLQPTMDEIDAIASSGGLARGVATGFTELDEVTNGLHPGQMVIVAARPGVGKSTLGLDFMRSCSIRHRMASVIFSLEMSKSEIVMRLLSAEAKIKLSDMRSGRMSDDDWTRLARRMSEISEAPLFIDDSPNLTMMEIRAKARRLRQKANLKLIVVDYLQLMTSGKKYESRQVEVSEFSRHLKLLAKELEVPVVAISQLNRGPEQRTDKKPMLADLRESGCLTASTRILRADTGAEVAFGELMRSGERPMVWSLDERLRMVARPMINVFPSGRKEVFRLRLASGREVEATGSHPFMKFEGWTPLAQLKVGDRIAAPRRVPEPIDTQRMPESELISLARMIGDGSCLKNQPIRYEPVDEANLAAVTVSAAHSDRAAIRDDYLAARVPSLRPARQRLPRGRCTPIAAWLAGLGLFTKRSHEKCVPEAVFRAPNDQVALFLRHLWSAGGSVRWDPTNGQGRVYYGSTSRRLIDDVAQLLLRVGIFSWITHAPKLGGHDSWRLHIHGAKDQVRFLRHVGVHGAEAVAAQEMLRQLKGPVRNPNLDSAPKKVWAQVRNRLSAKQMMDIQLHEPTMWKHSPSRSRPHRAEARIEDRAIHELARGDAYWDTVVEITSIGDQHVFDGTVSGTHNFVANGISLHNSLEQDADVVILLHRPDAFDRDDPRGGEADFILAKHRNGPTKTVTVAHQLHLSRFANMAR

Protein RecA = target: T4, Protein RecA (Mycobacterium tuberculosis, UniProt P9WHJ3); assay: Fluorescence Cell-Free Homogeneous Dose Retest to Identify Inhibitors of RecA-Intein Splicing Activity. [Related pubchem assays (depositor defined):AID2097, AID2223, AID489010, AID492950]; format: functional
T4 sequence (P9WHJ3 whole entry): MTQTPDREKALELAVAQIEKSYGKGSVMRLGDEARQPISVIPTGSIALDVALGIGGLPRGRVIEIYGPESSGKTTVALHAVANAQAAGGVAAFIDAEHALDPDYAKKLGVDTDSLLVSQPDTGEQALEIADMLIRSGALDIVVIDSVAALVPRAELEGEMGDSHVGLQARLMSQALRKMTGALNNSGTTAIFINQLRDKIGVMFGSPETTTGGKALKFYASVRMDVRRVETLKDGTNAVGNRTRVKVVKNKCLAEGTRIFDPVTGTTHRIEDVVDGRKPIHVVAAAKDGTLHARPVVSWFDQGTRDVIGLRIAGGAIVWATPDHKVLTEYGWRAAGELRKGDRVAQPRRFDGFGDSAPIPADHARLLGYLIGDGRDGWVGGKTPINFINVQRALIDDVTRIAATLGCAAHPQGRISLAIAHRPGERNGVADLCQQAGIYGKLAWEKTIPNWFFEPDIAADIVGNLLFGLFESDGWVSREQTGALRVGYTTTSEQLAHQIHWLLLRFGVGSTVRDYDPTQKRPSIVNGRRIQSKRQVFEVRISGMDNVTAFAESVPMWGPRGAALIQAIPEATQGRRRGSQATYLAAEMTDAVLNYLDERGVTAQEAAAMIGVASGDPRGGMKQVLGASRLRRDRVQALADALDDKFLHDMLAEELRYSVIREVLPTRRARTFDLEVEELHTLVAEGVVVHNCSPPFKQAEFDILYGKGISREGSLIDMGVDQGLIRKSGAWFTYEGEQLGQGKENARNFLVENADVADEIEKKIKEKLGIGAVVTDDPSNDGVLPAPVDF

T2 sequence (P49327 whole entry): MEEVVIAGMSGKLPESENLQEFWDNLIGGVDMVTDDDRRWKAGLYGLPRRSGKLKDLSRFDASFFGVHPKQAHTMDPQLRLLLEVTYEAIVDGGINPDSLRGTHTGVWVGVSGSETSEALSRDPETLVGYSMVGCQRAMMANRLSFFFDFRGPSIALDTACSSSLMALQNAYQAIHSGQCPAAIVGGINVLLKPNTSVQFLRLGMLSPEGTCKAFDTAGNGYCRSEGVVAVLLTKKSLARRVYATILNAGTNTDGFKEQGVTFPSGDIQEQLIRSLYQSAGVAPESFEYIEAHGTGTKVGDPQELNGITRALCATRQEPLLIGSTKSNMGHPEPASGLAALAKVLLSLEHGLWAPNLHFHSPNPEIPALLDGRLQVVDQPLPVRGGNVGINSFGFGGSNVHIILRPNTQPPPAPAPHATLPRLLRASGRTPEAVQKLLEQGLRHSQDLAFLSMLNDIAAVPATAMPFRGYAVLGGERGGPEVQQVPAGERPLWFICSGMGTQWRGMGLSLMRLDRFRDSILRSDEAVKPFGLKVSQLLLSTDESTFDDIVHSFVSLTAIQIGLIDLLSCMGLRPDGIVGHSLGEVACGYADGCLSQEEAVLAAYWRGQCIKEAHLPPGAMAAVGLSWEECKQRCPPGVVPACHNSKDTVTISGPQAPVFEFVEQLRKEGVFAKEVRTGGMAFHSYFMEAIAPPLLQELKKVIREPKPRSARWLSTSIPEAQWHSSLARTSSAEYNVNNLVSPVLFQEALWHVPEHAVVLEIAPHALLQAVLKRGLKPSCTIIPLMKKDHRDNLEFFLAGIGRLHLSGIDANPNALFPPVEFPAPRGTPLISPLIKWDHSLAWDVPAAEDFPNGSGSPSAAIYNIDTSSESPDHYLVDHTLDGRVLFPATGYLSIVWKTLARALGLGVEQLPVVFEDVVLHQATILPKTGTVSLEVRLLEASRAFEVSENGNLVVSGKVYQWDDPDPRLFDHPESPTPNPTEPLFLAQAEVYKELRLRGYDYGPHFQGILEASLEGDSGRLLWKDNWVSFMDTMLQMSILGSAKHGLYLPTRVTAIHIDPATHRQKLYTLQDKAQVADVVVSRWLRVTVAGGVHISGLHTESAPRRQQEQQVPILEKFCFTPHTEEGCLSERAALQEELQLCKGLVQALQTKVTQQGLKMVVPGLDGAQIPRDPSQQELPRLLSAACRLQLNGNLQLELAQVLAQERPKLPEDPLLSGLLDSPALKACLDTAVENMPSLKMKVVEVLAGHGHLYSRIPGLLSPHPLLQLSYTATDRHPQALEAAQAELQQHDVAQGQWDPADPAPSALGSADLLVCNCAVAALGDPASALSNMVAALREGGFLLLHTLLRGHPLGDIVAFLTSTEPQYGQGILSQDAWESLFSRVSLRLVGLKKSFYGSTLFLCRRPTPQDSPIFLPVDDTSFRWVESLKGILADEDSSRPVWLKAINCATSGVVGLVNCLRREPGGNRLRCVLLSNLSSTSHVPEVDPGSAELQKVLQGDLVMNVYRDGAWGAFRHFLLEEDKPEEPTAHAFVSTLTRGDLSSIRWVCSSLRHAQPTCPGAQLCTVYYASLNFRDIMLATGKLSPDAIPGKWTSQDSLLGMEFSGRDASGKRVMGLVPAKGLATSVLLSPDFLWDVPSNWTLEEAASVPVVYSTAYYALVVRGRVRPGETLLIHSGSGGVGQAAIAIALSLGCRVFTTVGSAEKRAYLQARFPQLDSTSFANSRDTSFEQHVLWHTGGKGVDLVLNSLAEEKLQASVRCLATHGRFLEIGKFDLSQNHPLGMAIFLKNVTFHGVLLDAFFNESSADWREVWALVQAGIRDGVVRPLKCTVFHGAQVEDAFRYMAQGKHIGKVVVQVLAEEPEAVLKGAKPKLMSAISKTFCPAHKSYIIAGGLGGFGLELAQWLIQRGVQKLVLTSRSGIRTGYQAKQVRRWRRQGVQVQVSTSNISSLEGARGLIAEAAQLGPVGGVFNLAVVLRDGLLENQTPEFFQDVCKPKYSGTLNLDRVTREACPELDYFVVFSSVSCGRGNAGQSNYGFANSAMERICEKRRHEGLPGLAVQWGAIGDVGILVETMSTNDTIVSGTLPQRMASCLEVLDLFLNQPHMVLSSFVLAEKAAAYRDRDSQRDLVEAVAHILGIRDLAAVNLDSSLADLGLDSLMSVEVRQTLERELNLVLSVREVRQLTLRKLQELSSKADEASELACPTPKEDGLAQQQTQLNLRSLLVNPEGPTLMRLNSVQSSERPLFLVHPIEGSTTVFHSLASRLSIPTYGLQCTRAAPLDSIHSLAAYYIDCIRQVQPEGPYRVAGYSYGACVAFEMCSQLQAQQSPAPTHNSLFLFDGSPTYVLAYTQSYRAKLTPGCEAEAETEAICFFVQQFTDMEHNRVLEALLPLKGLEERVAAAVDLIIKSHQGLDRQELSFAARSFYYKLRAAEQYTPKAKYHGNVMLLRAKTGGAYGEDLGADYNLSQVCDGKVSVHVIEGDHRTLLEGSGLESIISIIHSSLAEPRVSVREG
Chain of Cytochrome P450 2C19 (P33261 whole entry, the tested form may be a part): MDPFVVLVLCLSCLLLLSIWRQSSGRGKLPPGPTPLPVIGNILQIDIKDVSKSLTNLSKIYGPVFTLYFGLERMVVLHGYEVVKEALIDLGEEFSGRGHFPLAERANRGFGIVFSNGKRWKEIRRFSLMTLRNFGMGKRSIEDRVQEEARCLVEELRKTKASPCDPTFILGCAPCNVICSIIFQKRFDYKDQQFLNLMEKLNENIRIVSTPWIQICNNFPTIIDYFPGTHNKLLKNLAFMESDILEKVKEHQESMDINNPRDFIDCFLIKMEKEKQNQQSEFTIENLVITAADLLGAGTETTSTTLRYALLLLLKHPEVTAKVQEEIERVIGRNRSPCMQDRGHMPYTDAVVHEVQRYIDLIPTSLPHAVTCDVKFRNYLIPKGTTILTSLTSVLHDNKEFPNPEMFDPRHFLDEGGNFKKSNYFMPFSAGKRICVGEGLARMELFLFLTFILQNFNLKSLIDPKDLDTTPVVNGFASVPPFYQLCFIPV
Chain of Nonstructural protein 1 (Q194T2 whole entry): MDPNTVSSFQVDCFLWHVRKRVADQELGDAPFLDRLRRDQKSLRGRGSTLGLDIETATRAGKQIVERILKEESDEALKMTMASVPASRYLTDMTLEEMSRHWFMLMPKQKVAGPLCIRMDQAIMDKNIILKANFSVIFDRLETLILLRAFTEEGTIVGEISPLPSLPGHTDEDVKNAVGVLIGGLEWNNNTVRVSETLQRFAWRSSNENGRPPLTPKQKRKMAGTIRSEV

## Clc1ccc(-c2cn3c(n2)-c2ccccc2C3)cc1Cl
Protein skinhead-1
  IC50: > 100 µM (inactive)

## Cc1ccc(-c2csc(-c3ccncc3)n2)cc1
Protein skinhead-1
  IC50: 65.2 µM (inactive)

## O=C(NC1CC1)c1cc(-c2ccc(Br)cc2)nc2ccccc12
Protein skinhead-1
  IC50: > 100 µM (inactive)

## O=C1CC(c2cccc([N+](=O)[O-])c2)c2c(ccc3ccccc23)N1 (configuration not stated)
Fatty acid synthase [1]
  IC50: 52.2 µM (inactive)
Fatty acid synthase [2]
  IC50: 56.4 µM (inactive)

## Cc1cc(C)c2cc(C#N)c(N3CCCC3)nc2c1
Protein skinhead-1
  IC50: > 100 µM (inactive)

## CCN(Cc1ccccc1)c1ccc(N=Nc2nn(C)c(C)c2[N+](=O)[O-])cc1
Nonstructural protein 1
  IC50: 9.29 µM (active)
Fatty acid synthase [1]
  IC50: 13.9 µM (active)
Fatty acid synthase [2]
  IC50: 7.95 µM (active)

## N#Cc1cc(C(=O)c2ccccc2OCC(=O)Nc2ccccc2Cl)cn(C2CCCCC2)c1=O
[3]
  EC50: 22 µM (active)
[4]
  EC50: > 120 µM (not active)
[5]
  EC50: > 120 µM (not active)

## COc1ccccc1N1CCN(CC(O)c2c(C)[nH]c3ccccc23)CC1 (configuration not stated)
Vero
  CC50: > 25 µM (active)

## Cc1c(NC(=O)CCC2CCCCC2)cc(C(=O)N2CCOCC2)cc1[N+](=O)[O-]
[3]
  EC50: > 120 µM (not active)
[4]
  EC50: > 120 µM (not active)
[5]
  EC50: > 120 µM (not active)

## COC(=O)c1c(NC(=O)CCl)sc(C(=O)N2CCOCC2)c1C
[6]
  CC50: 16.4 µM (active)

## Cc1ccc(C)c(S(=O)(=O)N2CCN(C(=O)C3CCN(c4ncnc5sc(C)c(C)c45)CC3)CC2)c1
[7]
  AC50: 2.82 µM (active)
[8]
  AC50: > 70 µM (inactive)
[9]
  AC50: 2.29 µM (active)

## Cc1cc2c(=O)oc(-c3ccccc3Br)nc2s1
Fatty acid synthase [1]
  IC50: 7.57 µM (active)
Fatty acid synthase [2]
  IC50: 8.01 µM (active)

## CCN(CC)S(=O)(=O)c1ccc(C2=NOC3(C2)N(C)c2ccccc2C3(C)C)cc1 (configuration not stated)
[10]
  CC50: > 50 µM (active)
[3]
  EC50: > 120 µM (not active)
[4]
  EC50: 29 µM (active)
[5]
  EC50: 0.516 µM (active)

## C=CCn1c(SCc2cc(=O)n3ccsc3n2)nc2sc(C)c(C)c2c1=O
[3]
  EC50: 15.3 µM (active)
[4]
  EC50: > 120 µM (not active)
[5]
  EC50: > 120 µM (not active)

## CC(=O)Nc1sc(/C(C#N)=C\c2cccc(Cl)c2)nc1-c1ccc(C)cc1
Protein skinhead-1
  IC50: > 100 µM (inactive)

## Clc1ccc2oc(-c3cccnc3)nc2c1
Cytochrome P450 2C19
  AC50: 14.1 µM (inconclusive)
Protein skinhead-1
  IC50: 29 µM (active)

## COc1cccc(-n2c(CN3CCN(c4ccccn4)CC3)nc3ccc([N+](=O)[O-])cc3c2=O)c1
Fatty acid synthase [1]
  IC50: 3.23 µM (active)
Fatty acid synthase [2]
  IC50: 3.67 µM (active)

## O=[N+]([O-])c1ccc(C2CC(c3ccccc3)=Nc3ccccc3S2)cc1 (configuration not stated)
[6]
  CC50: 37.4 µM (active)

## O=C(Nc1ccc(C2CC2(Cl)Cl)cc1)c1ccccc1Br (configuration not stated)
Protein skinhead-1
  IC50: 70 µM (inactive)

## CC(C)C[C@H]1CN([C@@H](CC(C)C)CN2CCCC2CN2C(=S)NC[C@@H]2Cc2ccc(O)cc2)C(=S)N1CC1CCCCCC1 (some centres not stated)
Vero
  CC50: 20.9 µM (active)

## Cc1ccc(OCCNC(=O)CNC(=O)c2ccc(Cl)c([N+](=O)[O-])c2)cc1
Fatty acid synthase [1]
  IC50: 8.99 µM (active)
Fatty acid synthase [2]
  IC50: 9.71 µM (active)

## O=C(CN1CCCC1c1cccs1)Nc1cc(S(=O)(=O)N2CCCCC2)ccc1Cl (configuration not stated)
[7]
  AC50: 14.4 µM (active)
[8]
  AC50: 60.5 µM (active)
[9]
  AC50: 6.82 µM (active)

## Cn1nc(C(C)(C)C)cc1C(=O)N1CCCCC1c1cc(C(=O)Nc2cccc3c2CCCC3)no1 (configuration not stated)
[7]
  AC50: 10.2 µM (active)
[8]
  AC50: 62.8 µM (active)
[9]
  AC50: 16.5 µM (active)

## COC(=O)C1=C(c2ccc(OCc3ccccc3)cc2)C[C@@H]2CC[C@H]1N2C(=O)NCc1ccc(C(C)(C)C)cc1
[7]
  AC50: 6.84 µM (active)
[8]
  AC50: > 70 µM (inactive)
[9]
  AC50: 1.63 µM (active)

## O=C(Nc1cccc(C(=O)O)c1)/C(=C\c1cccc([N+](=O)[O-])c1)NC(=O)c1ccc(Br)cc1
Fatty acid synthase [1]
  IC50: 4.62 µM (active)
Fatty acid synthase [2]
  IC50: 5.19 µM (active)

## Cc1ccc(S(=O)(=O)Nc2ccc3c(c2)CC(=O)N([C@@H](C)CO)C[C@H](C)[C@H](CN(C)S(=O)(=O)c2ccccc2)O3)cc1
[11]
  AC50: 14.7 µM (active)
[12]
  AC50: 15.5 µM (active)
[13]
  AC50: 34.2 µM (active)

## Clc1ccc(Sc2oc(/C=N/n3cnnc3)cc2Br)cc1
[14]
  EC50: 15.2 µM (active)
[15]
  EC50: 43.8 µM (active)
[16]
  AC50: 2 µM (active)
Protein RecA
  EC50: 8.65 µM (active)

Reference: ChEMBL document CHEMBL1201862, “PubChem BioAssay data set” (2004)
